# Source: patent US12302928B2, “Application of acylated derivative of amino acid in preparation of animal feed additive” (ANIPHA TECHNOLOGIES PTY LTD, priority 2018, dated 2025)
# Like-named read-outs stand apart in the source and are kept apart here.
# Experiments:
# [1] = test system: Duroc×Landrace×Yorkshire cross-bred bacon-type pigs; experiment: Breeding test B1: effect on the production performance of pigs; type: in vivo; details: 400 ppm in basal daily ration, 28 days; for ADFI (average daily feed intake) / ADG (average daily gain): 65-day-old pigs; for FCR (feed conversion ratio): ADFI/ADG
# Description: 270 65-day-old Duroc×Landrace×Yorkshire cross-bred bacon-type pigs with similar body weight were randomly divided into 9 groups, with 3 replications per group and 10 pigs (half of male and female) per replication. The pigpens and utensils were sterilized before the test. During the test period, the test pigs were free-stall housed in the same pigpen under the same feeding and management conditions. During the test period, the test pigs were free to drink water and eat feed, and test pigs were fed twice a day. The test groups were the control group (group I) and the test groups II˜IX, respectively. Wherein the basal daily ration was only given for the control group, and 400 ppm of different acylated derivative of the aminobutyric acid was added into the basal daily ration for the test groups II˜IX.
# No other antioxidant ingredients and growth promoters were added for the test groups during the entire feeding process. The test period was 28 days, with each repetition as a unit, the test pigs were weighed at the age of 93 days without stopping water and feed for 12 hours; the average daily feed intake (ADFI, g/d*each pig), the average daily gain (ADG, g/d*each pig) and the feed conversion ratio (FCR) were calculated for each of the test groups. The formula for calculation was as follows: Average daily feed intake=(total amount of feed−remaining amount of feed)/(number of days of test×number of pigs per repetition); Average daily gain=(average body weight at the end of the test−average body weight at the beginning of the test)/number of days of test; Feed conversion ratio=average daily feed intake/average daily gain.
# [2] = test system: Jingbai laying hens; experiment: Breeding test B2: effect on the production performance of laying hens; type: in vivo; details: 150 ppm in basal daily ration, 158 days; for EPR (egg production rate): 147-day-old laying hens
# Description: The test adopted a single-factor random design. 1,080 147-day-old Jingbai laying hens with similar body weight were selected and randomly divided into 9 groups, with 6 replications per group and 20 Jingbai laying hens per replication. The poultry houses and utensils were sterilized before the test. During the test period, the Jingbai laying hens were cage cultured in the same poultry house under the same feeding and management conditions. The basal daily ration was mainly corn-soybean meal, and no other antioxidant ingredients and growth promoters were added additionally during the entire feeding process. The test groups were the control group (group I) and the test groups II˜IX, respectively. The basal daily ration was only given for the control group, and 150 ppm of different acylated derivatives of the aminobutyric acid were added into the basal daily ration for the test groups II˜IX. The pre-feeding period was 10 days, and the test period was 158 days. The test laying hens were free to drink water and eat feed, and were fed twice a day. The test takes each repetition as a unit, and records the total egg number, the egg production, and the feed intake every day, and calculates the egg production rate (EPR), the average daily feed intake (ADFI, g/d), the egg weight (EW, g) and the feed-to-egg ratio (FER) of the laying hens during the entire test. The formula for calculation was as follows: Egg production rate (%)=average daily total egg number/number of laying hens×100; Egg weight (g)=average daily total egg weight/average daily total egg number; Feed-to-egg ratio=average daily feed intake/egg weight.
# [3] = test system: yellow-feathered broilers; experiment: Breeding test B3: effect on the production performance of broilers; type: in vivo; details: 300 ppm in basal daily ration, 20 days; for ADFI (average daily feed intake): 1-day-old broilers; for FCR (feed conversion ratio): ADFI/ADG
# Description: The test adopted a single-factor random design. 1,080 1-day-old yellow-feathered broilers with similar body weight and the average weight of 50 g were selected and randomly divided into 9 groups, with 6 replications per group and 20 yellow-feathered broilers (half of male and female) per replication. The poultry houses and utensils were sterilized before the test. During the test period, the yellow-feathered broilers were housed in the same poultry house under the same feeding and management conditions. The basal daily ration was mainly corn-soybean meal, and no other antioxidant components and growth promoters were added additionally during the entire feeding process. The test groups were the control group (group I) and the test groups II˜IX, respectively. The basal daily ration was only given for the control group, and 300 ppm of different acylated derivatives of the aminobutyric acid were added into the basal daily ration for the test groups II˜IX.
# The test period was 20 days. The test broilers were free to drink water and eat feed, and were fed twice a day. With each repetition as a unit, the test broilers were weighed at the age of 21 days (stopping feed for 12 hours, without stopping water), the feed consumption of test broilers were recorded, and the average daily feed intake (ADFI, g/d*each broiler), the average daily gain (ADG, g/d*each broiler) and feed conversion ratio (FCR) were calculated for each of the test groups. The formula for calculation was as follows: Feed conversion ratio (FCR)=average daily feed intake/average daily gain.
# [4] = test system: grass carps; experiment: Breeding test B4: use in fish feed (growth of grass carps); type: in vivo; details: for change in vivo at 150 ppm, 150 µg/mL: po, 1344 h, read-out: Weight gain rate
# Experimental: The test fishes used were grass carps, and the test was carried out in the aquaculture farm of the test field of Guangzhou Insighter. Healthy, lively, and uniform grass carp fingerlings were fed in large cages for 4 weeks before being used for formal breeding test. The experimental system was a small floating cage. Both the small cage and the temporary cage were placed in a 3500 m^2 pond of the test field, the depth of the pond was about 1.5 m, and the water of the pond was fully aerated in the bottom of the pond. During the test, 360 grass carps that were hungry for 1 day were randomly divided into 9 groups, with 4 replications per group and 10 grass carps per replication. All of the grass carps were weighed, and then were randomly placed in 36 cages and fed with different test feeds. The test feeds were self-prepared, and 150 ppm of different acylated derivatives of the aminobutyric acid were added into the basal feed for different test groups, respectively. The test groups were the control group (group I) and the test groups IIIX, respectively. The basal daily ration was only given for the control group, and 150 ppm of different acylated derivatives of the aminobutyric acid were added into the basal daily ration for the test groups IIIX.
# The test adopted time-limited artificial feeding, and the feeding amount was adjusted once a week. The feeding rate of the control group and the feeding rate of the test groups (according to the initial body weight) were exactly the same, and the grass carps were fed twice a day (7:30 and 15:00). The test period was 8 weeks.
# [5] = after subcutaneous injection; cited from earlier work
# [6] = test system: convulsion caused by bicuculline or corazol; details: cited from earlier work
# [7] = test system: glutamate decarboxylase; details: cited from earlier work
# [8] = test system: nephrotoxicity caused by cephalosporin; details: rabbit; 150 mg/kg; cephalosporin at a dose of 150 mg/kg; cited from earlier work
Compound,ADFI (average daily feed intake) [1] [g/d * each pig],ADG (average daily gain) [1] [g/d * each pig],FCR (feed conversion ratio) [1],ADFI (average daily feed intake) [2] [g/day],EW (egg weight) [2] [g],EPR (egg production rate) [2] [%],ADG (average daily gain) [3] [g/d * each broiler],ADFI (average daily feed intake) [3] [g/d * each broiler],FCR (feed conversion ratio) [3],"(FCR) ([4]; 150 ppm in basal feed, 8 weeks)","Average final weight ([4]; 150 ppm in basal feed, 8 weeks) [g]","change in vivo at 150 ppm, 150 µg/mL ([4]; 150 ppm in basal feed, 8 weeks) [%]","change in vivo at 150 ppm, 150 µg/mL [4] [%]",time to maximum blood concentration [5] [min],antagonism of convulsion [6],inhibition of glutamate decarboxylase [7],protection of the kidney from cephalosporin nephrotoxicity [8]
NCCCC(=O)NCCCC(=O)O [N-(γ-aminobutyryl)-γ-aminobutyric acid],1831,693,2.642,160,55.24,84.4,14.62,28.94,1.98,1.80,707,83.7,–,–,–,–,–
CC(=O)NCCCC(=O)O [N-acetyl-γ-aminobutyric acid],1827,723,2.665,160,55.24,82.2,15.15,31.06,2.05,1.81,733,77.6,–,–,–,–,–
O=C(O)CCCNC(=O)c1ccccc1 [N-benzoyl-γ-aminobutyric acid],1837,699,2.628,158,54.92,86.7,14.13,27.56,1.95,1.79,721,–,81.6,≤ 5,can antagonize the convulsion,can inhibit a glutamate decarboxylase,can significantly protect the kidney
NCC(=O)NCCCC(=O)O [N-glycyl-γ-aminobutyric acid],1728,651,2.655,161,55.61,82.9,13.02,26.17,2.01,1.75,755,–,78.2,–,–,–,–
Nc1ccc(C(=O)NCCCC(=O)O)cc1 [N-p-aminobenzoyl-γ-aminobutyric acid],1643,632,2.601,161,55.31,82.6,12.42,25.84,2.08,1.84,713,79.2,–,–,–,–,–
O=C(O)CCCNC(=O)c1ccc(Cl)cc1 [N-p-chlorobenzoyl-γ-aminobutyric acid],1675,642,2.610,160,55.07,81.4,12.32,24.88,2.02,1.77,730,81.5,–,–,–,–,–
O=C(O)CCCNC(=O)c1ccc(O)cc1 [N-p-hydroxybenzoyl-γ-aminobutyric acid],1602,611,2.620,161,55.27,81.8,12.32,24.52,1.99,1.82,710,81.5,–,–,–,–,–
Cc1ccc(C(=O)NCCCC(=O)O)cc1 [N-p-methylbenzoyl-γ-aminobutyric acid],1769,672,2.631,159,54.81,84.4,13.84,27.13,1.96,1.74,739,82.1,–,–,–,–,–
